Earlier results as cited in patent publication US12121499B2, “Pharmaceutical composition comprising the phytocannabinoids cannabidivarin (CBDV) and cannabidiol (CBD)” (priority 2011, dated 2024).
Read-outs that look alike come from different tables or passages of the source.

Assays:
[1] = test system: seizure frequency in epileptic patients; settings: 200-300 mg of cannabidiol per day plus standard antiepileptic drugs; 12 epileptic patients
[2] = molecular target: T1, CB1 receptor (Homo sapiens, UniProt P21554); settings: WO 2007/138322
[3] = test system: seizure frequency; settings: 900-1200 mg of cannabidiol a day for 10 months; single patient
[4] = test system: grand mal seizures; settings: 200-300 mg cannabidiol plus regular medication
[5] = rats; WO 2007/138322
[6] = molecular target: CB2 receptor (Homo sapiens, UniProt P34972); settings: WO 2007/138322
[7] = test system: seizures; settings: 5 institutionalized children not responding to phenobarbital and phenoytin
[8] = molecular target: T1, CB1 receptor; settings: WO 2006/054057; Pertwee (2000)
[9] = rats, doses greater than 200 mg/kg

T1 sequence (P21554 whole entry): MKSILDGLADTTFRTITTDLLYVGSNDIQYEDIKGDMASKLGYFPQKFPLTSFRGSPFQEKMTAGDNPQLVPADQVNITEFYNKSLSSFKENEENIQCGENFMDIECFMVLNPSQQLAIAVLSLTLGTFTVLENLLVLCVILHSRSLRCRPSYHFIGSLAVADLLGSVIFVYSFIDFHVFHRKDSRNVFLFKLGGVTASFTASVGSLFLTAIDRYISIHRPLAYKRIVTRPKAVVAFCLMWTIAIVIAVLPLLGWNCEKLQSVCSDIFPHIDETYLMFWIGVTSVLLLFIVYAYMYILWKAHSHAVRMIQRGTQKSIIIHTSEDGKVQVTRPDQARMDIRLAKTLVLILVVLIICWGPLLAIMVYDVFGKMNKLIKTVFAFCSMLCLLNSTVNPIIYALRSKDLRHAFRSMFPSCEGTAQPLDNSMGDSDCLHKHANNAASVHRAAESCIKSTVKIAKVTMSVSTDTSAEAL
Chain of CB2 receptor (P34972 whole entry): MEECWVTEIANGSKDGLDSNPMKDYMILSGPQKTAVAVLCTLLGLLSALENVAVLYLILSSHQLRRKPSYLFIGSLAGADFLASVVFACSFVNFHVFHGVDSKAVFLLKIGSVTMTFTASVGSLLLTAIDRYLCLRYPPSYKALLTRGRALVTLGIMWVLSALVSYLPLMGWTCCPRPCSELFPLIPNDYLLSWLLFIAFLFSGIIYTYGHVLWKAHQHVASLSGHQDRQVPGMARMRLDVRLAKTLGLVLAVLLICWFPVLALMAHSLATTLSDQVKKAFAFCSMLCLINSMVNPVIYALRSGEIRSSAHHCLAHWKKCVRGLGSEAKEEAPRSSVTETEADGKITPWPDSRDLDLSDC

C=C(C)[C@@H]1CCC(C)=C[C@H]1c1c(O)cc(CCCCC)cc1O [CBD, Cannabidiol]
seizure frequency [1]: no significant improvement
action at the CB1 receptor [2]: inverse agonist
seizure frequency [3]: markedly reduced
patients who remained unchanged [4]: 1
patients who showed minor improvement [4]: 2
patients who showed partial improvement [4]: 2
unwanted effect [4]: mild sedation
patients who showed complete improvement ([4]; 16 grand mal patients in study): 3
bodyweight [5]: reduced bodyweight
action at the CB2 receptor [6]: inverse agonist

CCCCCc1cc(O)c2c(c1)OC(C)(C)[C@@H]1CCC(C)=C[C@@H]21 [THC, Tetrahydrocannabinol]
seizure outcome [7]: One became entirely free of seizures, one became almost completely free of seizures, and the other three did no worse than before

CCCc1cc(O)c2c(c1)OC(C)(C)[C@@H]1CCC(C)=C[C@@H]21 [THCV, Tetrahydrocannabivarin]
action at the CB1 receptor [8]: CB1 receptor antagonist

CCC1(C)CC(=O)NC1=O (stereo not drawn) [ethosuximide]
motor and other side effects [9]: notable motor and other side effects (including sedation)

CCC1(c2ccccc2)C(=O)NC(=O)NC1=O [phenobarbital]
motor and other side effects (rat models of epilepsy, doses greater than 250 mg/kg): notable motor and other side effects (including sedation)

CCCC(CCC)C(=O)O [valproate]
motor and other side effects [9]: notable motor and other side effects (including sedation)
